Columns and labels:
SD rat heart rate = assay: Effect of S1P1 receptor agonists on rat heart rate; format: in vivo; conditions: for HR delta %: (lowest heart rate postdose − pre-administration)/pre-administration; for heart rate pre-administration: before administration
Protocol: 2.1 Experimental animals: SD rats, purchased from Weitonglihua. Weight: 200-240 g, male. Every test group was assigned three rats. The normal rats were set as control group and determined as the medicated group parallelly for three times. The positive drug FTY720 was repeated three times.
2.2 Apparatus: Intelligent non-invasive blood pressure measurement meter (Softron, Japan).
(1) Preparation: The drug was dissolved to reach a concentration of 2.5 mg/mL.
(1) Determination of rat heart rate before administration. Repeat for three times.
(2) Administration: intragastric administration after SD rats weighed.
(3) Determination of rat heart rate at the time 0.5 h, 1 h, 3 h, 6 h, 8 h and 24 h after administration. Repeat for three times
Every drug was tested with three SD rats parallelly. […] Delta % of heart rate=(the lowest heart rate postdose−the heart rate pre-administration)/the heart rate pre-administration, reflects the influence of drugs on rat heart rate.

[1] = test system: SD rat peripheral blood lymphocyte counts; assay: Effect of S1P1 receptor agonists on rat vein (peripheral) blood lymphocyte counts; format: in vivo; conditions: for LYM 0 h: before administration; for Δ %: largest decrease of lymphocyte count vs 0 h
Protocol: 10 mg of drugs were measured and placed in a mortar. After 4 mL of 5‰ CMC-Na were added, homogenous suspension was prepared in the mortar (one drop of twain-80 was added to help dissolving). Dosage: 10 mg/Kg, dose volume: 0.4 mL/100 g, intragastric administration.
Every medicated group was assigned three rats.
After the experimental animals stable in the clean environment for 24 h, 10 μL of blood was withdrawn via tail vein and diluted into 2 mL of diluents quickly. […] Then the prepared drugs were administered intragastrically to the animals. […] The animals were killed after 24 h.

[2] = Table 6, intragastric, listed as FTY720-1
[3] = Table 6, intragastric, listed as FTY720-2

`CCCCCCCCc1ccc(CCC(N)(CO)CO)cc1` [FTY720, reference compound] was tested, and the HR delta % (SD rat heart rate; Table 2, listed as FTY720-1) was 19.60%, the HR delta % (SD rat heart rate; Table 2, listed as FTY720-2) was 17.80% and the HR delta % (SD rat heart rate; Table 2, listed as FTY720-3) was 14.00%. For the same compound, the HR delta % (SD rat heart rate; Table 2, listed as average of FTY720) was 16.6%, the “heart rate 0.5 h” value (SD rat heart rate; Table 2, intragastric, 0.5 h after administration, listed as FTY720-1) was 392.33 and the “heart rate 0.5 h” value (SD rat heart rate; Table 2, intragastric, 0.5 h after administration, listed as FTY720-2) was 361.28. The “heart rate 0.5 h” value (SD rat heart rate; Table 2, intragastric, 0.5 h after administration, listed as FTY720-3) was 379.67, the “heart rate 0.5 h” value (SD rat heart rate; Table 2, intragastric, 0.5 h after administration, listed as average of FTY720) was 377.76 and the “heart rate 1 h” value (SD rat heart rate; Table 2, intragastric, 1 h after administration, listed as FTY720-1) was 361.00. For the same compound, the “heart rate 1 h” value (SD rat heart rate; Table 2, intragastric, 1 h after administration, listed as FTY720-2) was 331.71, the “heart rate 1 h” value (SD rat heart rate; Table 2, intragastric, 1 h after administration, listed as FTY720-3) was 370.62 and the “heart rate 1 h” value (SD rat heart rate; Table 2, intragastric, 1 h after administration, listed as average of FTY720) was 354.44. For the same compound, the “heart rate 3 h” value (SD rat heart rate; Table 2, intragastric, 3 h after administration, listed as FTY720-1) was 318.50, the “heart rate 3 h” value (SD rat heart rate; Table 2, intragastric, 3 h after administration, listed as FTY720-2) was 329.33 and the “heart rate 3 h” value (SD rat heart rate; Table 2, intragastric, 3 h after administration, listed as FTY720-3) was 355.83. For the same compound, the “heart rate 3 h” value (SD rat heart rate; Table 2, intragastric, 3 h after administration, listed as average of FTY720) was 334.55, the “heart rate 6 h” value (SD rat heart rate; Table 2, intragastric, 6 h after administration, listed as FTY720-1) was 325.78 and the “heart rate 6 h” value (SD rat heart rate; Table 2, intragastric, 6 h after administration, listed as FTY720-2) was 327.82. For the same compound, the “heart rate 6 h” value (SD rat heart rate; Table 2, intragastric, 6 h after administration, listed as FTY720-3) was 342.00, the “heart rate 6 h” value (SD rat heart rate; Table 2, intragastric, 6 h after administration, listed as average of FTY720) was 331.86 and the “heart rate 8 h” value (SD rat heart rate; Table 2, intragastric, 8 h after administration, listed as FTY720-1) was 341.00. For the same compound, the “heart rate 8 h” value (SD rat heart rate; Table 2, intragastric, 8 h after administration, listed as FTY720-2) was 338.78, the “heart rate 8 h” value (SD rat heart rate; Table 2, intragastric, 8 h after administration, listed as FTY720-3) was 342.50 and the “heart rate 8 h” value (SD rat heart rate; Table 2, intragastric, 8 h after administration, listed as average of FTY720) was 340.76. For the same compound, the “heart rate 24 h” value (SD rat heart rate; Table 2, intragastric, 24 h after administration, listed as FTY720-1) was 329.67, the “heart rate 24 h” value (SD rat heart rate; Table 2, intragastric, 24 h after administration, listed as FTY720-2) was 365.07 and the “heart rate 24 h” value (SD rat heart rate; Table 2, intragastric, 24 h after administration, listed as FTY720-3) was 363.44. For the same compound, the “heart rate 24 h” value (SD rat heart rate; Table 2, intragastric, 24 h after administration, listed as average of FTY720) was 352.72, the heart rate pre-administration (SD rat heart rate; Table 2, intragastric, listed as FTY720-1) was 396.28 and the heart rate pre-administration (SD rat heart rate; Table 2, intragastric, listed as FTY720-2) was 398.60. The heart rate pre-administration (SD rat heart rate; Table 2, intragastric, listed as FTY720-3) was 398.22, the heart rate pre-administration (SD rat heart rate; Table 2, intragastric, listed as average of FTY720) was 397.70 and the “Δ % = the percentage of change of rat heart rate before and after administration” value (SD rat heart rate; Table 4) was 26.16%. For the same compound, the “heart rate 0.5 h” value (SD rat heart rate; Table 4, intragastric, 0.5 h) was 356.33, the “heart rate 1 h” value (SD rat heart rate; Table 4, intragastric, 1 h) was 319.22 and the “heart rate 3 h” value (SD rat heart rate; Table 4, intragastric, 3 h) was 288.58. For the same compound, the “heart rate 6 h” value (SD rat heart rate; Table 4, intragastric, 6 h) was 280.13, the “heart rate 8 h” value (SD rat heart rate; Table 4, intragastric, 8 h) was 308.08 and the “heart rate 24 h” value (SD rat heart rate; Table 4, intragastric, 24 h) was 323.25. For the same compound, the “heart rate 0” value (SD rat heart rate; Table 4, intragastric, time 0, before administration) was 379.42, the HR delta % (SD rat heart rate; Table 6, listed as FTY720-1) was 21.86% and the HR delta % (SD rat heart rate; Table 6, listed as FTY720-2) was 22.61%. The “heart rate 1 h” value (SD rat heart rate; Table 6, intragastric, 1 h, listed as FTY720-1) was 389.62 ± 30.01, the “heart rate 1 h” value (SD rat heart rate; Table 6, intragastric, 1 h, listed as FTY720-2) was 389.62 ± 23.39 and the “heart rate 4 h” value (SD rat heart rate; [2]) was 340.17 ± 32.04. The “heart rate 4 h” value (SD rat heart rate; [3]) was 354.27 ± 15.79, the “heart rate 8 h” value (SD rat heart rate; Table 6, intragastric, 8 h, listed as FTY720-1) was 361.69 ± 27.99 and the “heart rate 8 h” value (SD rat heart rate; Table 6, intragastric, 8 h, listed as FTY720-2) was 346.91 ± 26.41. For the same compound, the “heart rate 12 h” value (SD rat heart rate; [2]) was 360.62 ± 18.19, the “heart rate 12 h” value (SD rat heart rate; [3]) was 335.67 ± 16.30 and the “heart rate 24 h” value (SD rat heart rate; Table 6, intragastric, 24 h, listed as FTY720-1) was 410.31 ± 32.13. For the same compound, the “heart rate 24 h” value (SD rat heart rate; Table 6, intragastric, 24 h, listed as FTY720-2) was 370.18 ± 26.82, the heart rate pre-administration (SD rat heart rate; [2]) was 435.36 ± 47.99 and the heart rate pre-administration (SD rat heart rate; [3]) was 433.75 ± 30.84. For the same compound, the HR delta % (SD rat heart rate; Table 9) was 17.80%, the “heart rate 0.5 h” value (SD rat heart rate; Table 9, intragastric, 0.5 h) was 361.28 ± 22.91 and the “heart rate 1 h” value (SD rat heart rate; Table 9, intragastric, 1 h) was 331.71 ± 12.26. For the same compound, the “heart rate 3 h” value (SD rat heart rate; Table 9, intragastric, 3 h) was 329.33 ± 11.32, the “heart rate 6 h” value (SD rat heart rate; Table 9, intragastric, 6 h) was 327.82 ± 15.60 and the “heart rate 8 h” value (SD rat heart rate; Table 9, intragastric, 8 h) was 338.78 ± 12.07. The “heart rate 24 h” value (SD rat heart rate; Table 9, intragastric, 24 h) was 365.07 ± 19.47, the heart rate pre-administration (SD rat heart rate; Table 9, intragastric) was 398.60 ± 33.20 and the “LYM 0 h” value ([1]; Table 1, 10 mg/Kg intragastric) was 4.20 ± 0.57 × 10^9/L. The “LYM 1 h” value ([1]; Table 1, 10 mg/Kg intragastric, 1 h after administration) was 4.75 ± 2.76 × 10^9/L, the “LYM 2 h” value ([1]; Table 1, 10 mg/Kg intragastric, 2 h after administration) was 2.45 ± 0.07 × 10^9/L and the “LYM 4 h” value ([1]; Table 1, 10 mg/Kg intragastric, 4 h after administration) was 2.75 ± 0.78 × 10^9/L. The “LYM 8 h” value ([1]; Table 1, 10 mg/Kg intragastric, 8 h after administration) was 1.80 ± 0.14 × 10^9/L, the “LYM 12 h” value ([1]; Table 1, 10 mg/Kg intragastric, 12 h after administration) was 1.00 ± 0.00 × 10^9/L and the “LYM 24 h” value ([1]; Table 1, 10 mg/Kg intragastric, 24 h after administration) was 2.60 ± 0.42 × 10^9/L. The “compared with 0 h (%) 1 h” value ([1]; Table 1, lymphocyte count change vs 0 h, 10 mg/Kg intragastric, 1 h) was −13.10%, the “compared with 0 h (%) 2 h” value ([1]; Table 1, lymphocyte count change vs 0 h, 10 mg/Kg intragastric, 2 h) was 41.67% and the “compared with 0 h (%) 4 h” value ([1]; Table 1, lymphocyte count change vs 0 h, 10 mg/Kg intragastric, 4 h) was 34.52%. The “compared with 0 h (%) 8 h” value ([1]; Table 1, lymphocyte count change vs 0 h, 10 mg/Kg intragastric, 8 h) was 57.14%, the “compared with 0 h (%) 12 h” value ([1]; Table 1, lymphocyte count change vs 0 h, 10 mg/Kg intragastric, 12 h) was 76.19% and the “compared with 0 h (%) 24 h” value ([1]; Table 1, lymphocyte count change vs 0 h, 10 mg/Kg intragastric, 24 h) was 38.10%. For the same compound, the “LYM 0 h” value ([1]; Table 3, 10 mg/Kg intragastric) was 4.97 ± 1.06 ×10^9/L, the “LYM 1 h” value ([1]; Table 3, 10 mg/Kg intragastric, 1 h) was 3.18 ± 0.52 ×10^9/L and the “LYM 2 h” value ([1]; Table 3, 10 mg/Kg intragastric, 2 h) was 3.15 ± 0.71 ×10^9/L. The “LYM 4 h” value ([1]; Table 3, 10 mg/Kg intragastric, 4 h) was 3.44 ± 1.30 ×10^9/L, the “LYM 6 h” value ([1]; Table 3, 10 mg/Kg intragastric, 6 h) was 2.78 ± 0.84 ×10^9/L and the “LYM 8 h” value ([1]; Table 3, 10 mg/Kg intragastric, 8 h) was 2.32 ± 0.90 ×10^9/L. For the same compound, the “LYM 12 h” value ([1]; Table 3, 10 mg/Kg intragastric, 12 h) was 2.33 ± 0.75 ×10^9/L, the “LYM 23 h” value ([1]; Table 3, 10 mg/Kg intragastric, 23 h) was 1.78 ± 0.29 ×10^9/L and the Δ % ([1]; Table 3, 10 mg/Kg intragastric) was 64.09%. For the same compound, the “LYM 0 h” value ([1]; Table 5, 10 mg/Kg intragastric) was 3.80 ± 0.14 × 10^9/L, the “LYM 1 h” value ([1]; Table 5, 10 mg/Kg intragastric, 1 h) was 2.30 ± 0.85 × 10^9/L and the “LYM 4 h” value ([1]; Table 5, 10 mg/Kg intragastric, 4 h) was 1.20 ± 0.36 × 10^9/L. The “LYM 8 h” value ([1]; Table 5, 10 mg/Kg intragastric, 8 h) was 1.07 ± 0.50 × 10^9/L, the “LYM 12 h” value ([1]; Table 5, 10 mg/Kg intragastric, 12 h) was 1.27 ± 0.23 × 10^9/L and the “LYM 24 h” value ([1]; Table 5, 10 mg/Kg intragastric, 24 h) was 1.60 ± 0.57 × 10^9/L. The Δ % ([1]; Table 5) was 71.93%, the “LYM 0 h” value ([1]; Table 7, 10 mg/Kg intragastric) was 3.80 ± 0.14 × 10^9/L and the “LYM 1 h” value ([1]; Table 7, 10 mg/Kg intragastric, 1 h) was 2.30 ± 0.85 × 10^9/L. The “LYM 4 h” value ([1]; Table 7, 10 mg/Kg intragastric, 4 h) was 1.20 ± 0.36 × 10^9/L, the “LYM 8 h” value ([1]; Table 7, 10 mg/Kg intragastric, 8 h) was 1.07 ± 0.50 × 10^9/L and the “LYM 12 h” value ([1]; Table 7, 10 mg/Kg intragastric, 12 h) was 1.27 ± 0.23 × 10^9/L. The “LYM 24 h” value ([1]; Table 7, 10 mg/Kg intragastric, 24 h) was 1.60 ± 0.57 × 10^9/L, the Δ % ([1]; Table 7) was 71.93% and the “LYM 0 h” value ([1]; Table 8, 10 mg/Kg intragastric) was 4.20 ± 0.57 × 10^9/L. For the same compound, the “LYM 1 h” value ([1]; Table 8, 10 mg/Kg intragastric, 1 h) was 4.75 ± 2.76 × 10^9/L, the “LYM 4 h” value ([1]; Table 8, 10 mg/Kg intragastric, 4 h) was 2.75 ± 0.78 × 10^9/L and the “LYM 8 h” value ([1]; Table 8, 10 mg/Kg intragastric, 8 h) was 1.80 ± 0.14 × 10^9/L. The “LYM 12 h” value ([1]; Table 8, 10 mg/Kg intragastric, 12 h) was 1.00 ± 0.00 × 10^9/L, the “LYM 24 h” value ([1]; Table 8, 10 mg/Kg intragastric, 24 h) was 2.60 ± 0.42 × 10^9/L and the Δ % ([1]; Table 8) was 76.19%.
